Measurements taken from US20250249056A1, “CANCER THERAPIES COMPRISING A NUCLEAR EXPORT INHIBITOR AND AN ONCOLYTIC VIRUS” (priority 2022, published 2025).

System: Colo205 cells
Type: cell-based, human
Details: selinexor-treated cytoplasm vs control cytoplasm

O=C(/C=C\n1cnc(-c2cc(C(F)(F)F)cc(C(F)(F)F)c2)n1)NNc1cnccn1 [selinexor]
Differential protein expression, PLEKHS1 (Q5SXH7): 2.039 | Differential protein expression, RSBN1 (Q5VWQ0): 100 | Differential protein expression, ZMYM4 (Q5VZL5): 0.01 | Differential protein expression, RPL7L1 (Q6DKI1): 0.463 | Differential protein expression, DMKN (Q6E0U4): 0.02 | Differential protein expression, NCAPH2 (Q6IBW4): 0.01 | Differential protein expression, LIN54 (Q6MZP7): 0.426 | Differential protein expression, POMZP3 (Q6PJE2): 100 | Differential protein expression, CCDC137 (Q6PK04): 0.426 | Differential protein expression, MPRIP (Q6WCQ1): 0.01 | Differential protein expression, NCCRP1 (Q6ZVX7): 2.342 | Differential protein expression, LPCAT2 (Q7L5N7): 2.194 | Differential protein expression, CXXC5 (Q7LFL8): 0.01 | Differential protein expression, KRT74 (Q7RTS7): 4.935 | Differential protein expression, KRT28 (Q7Z3Y7): 2.439 | Differential protein expression, KRT27 (Q7Z3Y8): 2.607 | Differential protein expression, KRT25 (Q7Z3Z0): 2.607 | Differential protein expression, MYH14 (Q7Z406): 2.01 | Differential protein expression, KRT78 (Q8N1N4): 2.84 | Differential protein expression, PIAS4 (Q8N2W9): 0.01 | Differential protein expression, GPATCH11 (Q8N954): 100 | Differential protein expression, KDM1B (Q8NB78): 0.01 | Differential protein expression, RNF169 (Q8NCN4): 100 | Differential protein expression, PHC3 (Q8NDX5): 100 | Differential protein expression, PPHLN1 (Q8NEY8): 0.01 | Differential protein expression, GDAP1 (Q8TB36): 2.559 | Differential protein expression, CIP2A (Q8TCG1): 0.239 | Differential protein expression, CHD6 (Q8TD26): 0.01 | Differential protein expression, GPT2 (Q8TD30): 0.411 | Differential protein expression, RB1CC1 (Q8TDY2): 100 | Differential protein expression, ZNF384 (Q8TF68): 0.01 | Differential protein expression, U2AF1L4 (Q8WU68): 2.738 | Differential protein expression, TSEN15 (Q8WW01): 0.497 | Differential protein expression, NIPSNAP1 (Q9BPW8): 0.499 | Differential protein expression, SH2D3A (Q9BRG2): 100 | Differential protein expression, WDR83 (Q9BRX9): 100 | Differential protein expression, TPPP3 (Q9BW30): 2.408 | Differential protein expression, LSM14B (Q9BX40): 0.437 | Differential protein expression, TTYH3 (Q9C0H2): 0.47 | Differential protein expression, BRD8 (Q9H0E9): 0.01 | Differential protein expression, WWP1 (Q9H0M0): 2.549 | Differential protein expression, TASP1 (Q9H6P5): 100 | Differential protein expression, RPF2 (Q9H7B2): 2.588 | Differential protein expression, CAAP1 (Q9H8G2): 100 | Differential protein expression, BRD9 (Q9H8M2): 0.01 | Differential protein expression, ING2 (Q9H160): 100 | Differential protein expression, SDCBP2 (Q9H190): 2.885 | Differential protein expression, EPB41L4B (Q9H329): 2.055 | Differential protein expression, FOXP1 (Q9H334): 0.01 | Differential protein expression, SP110 (Q9HB58): 0.01 | Differential protein expression, PATZ1 (Q9HBE1): 100 | Differential protein expression, SPC25 (Q9HBM1): 0.479 | Differential protein expression, AGO4 (Q9HCK5): 2.165 | Differential protein expression, TCF7L1 (Q9HCS4): 5.627 | Differential protein expression, MLXIPL (Q9NP71): 0.379 | Differential protein expression, TCF7L2 (Q9NQB0): 0.01 | Differential protein expression, STRN4 (Q9NRL3): 100 | Differential protein expression, RAD18 (Q9NS91): 100 | Differential protein expression, DIAPH3 (Q9NSV4): 0.233 | Differential protein expression, MBNL3 (Q9NUK0): 2.509 | Differential protein expression, MRGBP (Q9NV56): 100 | Differential protein expression, EXD2 (Q9NVH0): 2.016 | Differential protein expression, ASF1B (Q9NVP2): 0.458 | Differential protein expression, SDHAF2 (Q9NX18): 0.346 | Differential protein expression, EHF (Q9NZC4): 0.01 | Differential protein expression, MACROH2A2 (Q9P0M6): 100 | Differential protein expression, SENP1 (Q9POU3): 0.01 | Differential protein expression, m101L (Q9Q8J9): 2.679 | Differential protein expression, m097R (Q9Q8K3): 100 | Differential protein expression, m094R (Q9Q8K6): 0.01 | Differential protein expression, m089L (Q9Q8L1): 0.01 | Differential protein expression, m048L (Q9Q8P8): 2.287 | Differential protein expression, m043L (Q9Q8Q3): 0.01 | Differential protein expression, m042L (Q9Q8Q4): 0.01 | Differential protein expression, m032R (Q9Q8R4): 100 | Differential protein expression, DNAJB4 (Q9UDY4): 3.313 | Differential protein expression, DAXX (Q9UER7): 100 | Differential protein expression, MLX (Q9UH92): 0.453 | Differential protein expression, ADGRE2 (Q9UHX3): 0.491 | Differential protein expression, RASAL2 (Q9UJF2): 0.01 | Differential protein expression, LEF1 (Q9UJU2): 5.627 | Differential protein expression, ANAPC2 (Q9UJX6): 0.336 | Differential protein expression, GGA2 (Q9UJY4): 0.442 | Differential protein expression, CCNL1 (Q9UK58): 3.386 | Differential protein expression, RALY (Q9UKM9): 2.03 | Differential protein expression, YEATS2 (Q9ULM3): 100 | Differential protein expression, NOB1 (Q9ULX3): 0.407 | Differential protein expression, FZR1 (Q9UM11): 4.964 | Differential protein expression, NOL7 (Q9UMY1): 0.431 | Differential protein expression, LIMCH1 (Q9UPQ0): 0.01 | Differential protein expression, AGAP1 (Q9UPQ3): 2.271 | Differential protein expression, DNM3 (Q9UQ16): 100 | Differential protein expression, JRKL (Q9Y4A0): 0.474 | Differential protein expression, DCAF1 (Q9Y4B6): 0.482 | Differential protein expression, UTP18 (Q9Y5J1): 0.493 | Differential protein expression, ST14 (Q9Y5Y6): 2.934 | Differential protein expression, RBMX2 (Q9Y388): 100 | Differential protein expression, PSAT1 (Q9Y617): 0.469 | Differential protein expression, SLC12A7 (Q9Y666): 0.497 | Differential protein expression, mt6 (Q9YQ03): 0.01 | Differential protein expression, GLE1 (Q53GS7): 0.329 | Differential protein expression, INO80D (Q53TQ3): 100 | Differential protein expression, NAIF1 (Q69Y17): 0.374 | Differential protein expression, H3C13; H3C14; H3C15 (Q71DI3): 3.19 | Differential protein expression, TADA2B (Q86TJ2): 0.246 | Differential protein expression, RPS19BP1 (Q86WX3): 0.426 | Differential protein expression, KRT73 (Q86Y46): 4.935 | Differential protein expression, PBXIP1 (Q96AQ6): 2.168 | Differential protein expression, INTS12 (Q96CB8): 100 | Differential protein expression, LRRC58 (Q96CX6): 3.753 | Differential protein expression, RBMXL1 (Q96E39): 100 | Differential protein expression, MCRS1 (Q96EZ8): 0.01 | Differential protein expression, PERP (Q96FX8): 2.002 | Differential protein expression, LTV1 (Q96GA3): 0.288 | Differential protein expression, SMARCD1 (Q96GM5): 0.376 | Differential protein expression, ZNF668 (Q96K58): 0.01 | Differential protein expression, RNPC3 (Q96LT9): 100 | Differential protein expression, PWWP2A (Q96N64): 0.01 | Differential protein expression, SERPINB12 (Q96P63): 3.145 | Differential protein expression, SLC38A2 (Q96QD8): 0.262 | Differential protein expression, PHF12 (Q96QT6): 100 | Differential protein expression, SMC6 (Q96SB8): 0.01 | Differential protein expression, CDK3 (Q00526): 0.01 | Differential protein expression, ARL11 (Q969Q4): 2.014 | Differential protein expression, U2AF1 (Q01081): 2.205 | Differential protein expression, KRT76 (Q01546): 2.236 | Differential protein expression, SP2 (Q02086): 0.01 | Differential protein expression, PCDH1 (Q08174): 3.649 | Differential protein expression, DSC1 (Q08554): 2.044 | Differential protein expression, CDH17 (Q12864): 5.81 | Differential protein expression, PRDM2 (Q13029): 0.499 | Differential protein expression, KRR1 (Q13601): 2.698 | Differential protein expression, AAMP (Q13685): 0.385 | Differential protein expression, RUNX2 (Q13950): 0.192 | Differential protein expression, CDK13 (Q14004): 2.192 | Differential protein expression, TFDP2 (Q14188): 0.48
